{"source": "paper PMC12743403", "about": "“Green-synthesized silver nanoparticles from Camellia sinensis: mechanistic insights into phenolic-mediated multifunctional biological activities” (BMC Plant Biology, 2025)", "tested_on": "T1, urease", "T1 construct": "gene jack bean urease", "details": "100 mM urea, room temperature, 10 min; reference inhibitor"}
{"smiles": "NC(N)=S", "note": "[Thiourea]", "values": [{"measurement": "Urease IC50", "result": "24.5 ± 0.7", "unit": "µg/mL"}]}
